Drawing on patent publication US11667652B2, “MCL1 inhibitors” (Gilead Sciences, Inc., priority 2019, dated 2023), this text covers IC50 and EC50 for 13 compounds.

The target in one assay is MCL1/Bim (Homo sapiens (Human), UniProt Q07820). Description: MCL1/Bim Binding AlphaLISA Assay. The following applies: recombinant human 6xHis-MCL1 (171-327), biotinylated Bim peptide (51-76). Summed up: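 AlphaLISA with 0.0625 nM human 6×His-MCL1 (171-327) and 0.0625 nM biotinylated Bim (51-76) peptide in 20 mM Hepes pH 7.5, 150 mM NaCl, 0.002% Brij 35, 1 mM DTT, 0.01% BSA. Compound preincubated with MCL1 1 h, Bim added 2 h, then acceptor and donor beads 1 h each; % inhibition versus DMSO and no-protein/peptide controls.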
In general terms: Alpha assays give light when donor and acceptor beads are brought close together.

In the next assay the test system is SKBR3 cells. As to the kind of experiment: SKBR3 Cell Viability Assay. Format: cell-based. The following applies: CellTiter Glo, read-out: MCL1 CV SKBR3 EC50. In outline:
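Viability was measured by CellTiter-Glo luminescence after 72 h at 37° C, 5% CO2. Each well held 6,000 SKBR3 cells in McCoy's 5A/10% FBS dispensed onto serially diluted compound. Percent inhibition is relative to DMSO and 10 μM puromycin controls.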
In general terms: Cellular ATP, detected with luciferase, serves as a proxy for viable cell number.

The mark [1] stands for this setting: Homo sapiens, SK-BR-3, 72 hours.

Where two headings read alike, the source gives them in different places.

Sequence of MCL1/Bim (Q07820 171-327): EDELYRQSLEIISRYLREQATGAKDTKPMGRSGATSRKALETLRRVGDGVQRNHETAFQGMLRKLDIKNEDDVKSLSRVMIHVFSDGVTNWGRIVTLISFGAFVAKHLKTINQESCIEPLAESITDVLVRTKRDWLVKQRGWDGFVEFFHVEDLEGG

In the case of `COc1nn(C)cc1C(=O)N[S@@]1(=O)=NC(=O)c2ccc3c(c2)N(C[C@@H]2CC[C@H]2[C@@](O)(CC(=O)N2CCN(C)CC2)/C=C/C[C@H](C)C1)C[C@@]1(CCCc2cc(Cl)ccc21)CO3` [Example 100], the IC50 on MCL1/Bim amounted to 0.038 nM. In the assay with SKBR3 cells (72 hours), the EC50 was found to be 35.4 nM.
On to `COc1nn(C)cc1C(=O)N[S@@]1(=O)=NC(=O)c2ccc3c(c2)N(C[C@@H]2CC[C@H]2[C@](O)(CC(=O)N2CCN(C)CC2)/C=C/C[C@H](C)C1)C[C@@]1(CCCc2cc(Cl)ccc21)CO3` [Example 101], for which, on MCL1/Bim, the IC50 came out at 0.026 nM. Moreover, the EC50 with SKBR3 cells (72 hours) came out at 27 nM.
Regarding `COc1nn(C)cc1C(=O)N[S@@]1(=O)=NC(=O)c2ccc3c(c2)N(C[C@@H]2CC[C@H]2[C@@](O)(CC(=O)N2CCN4CCOCC4C2)/C=C/C[C@H](C)C1)C[C@@]1(CCCc2cc(Cl)ccc21)CO3` (some centres unmarked) [Example 102], the IC50 at MCL1/Bim is 0.026 nM. The EC50 in the assay with SKBR3 cells (72 hours) was determined as 16.1 nM.
On the same counts, the results for `COc1nn(C)cc1C(=O)N[S@@]1(=O)=NC(=O)c2ccc3c(c2)N(C[C@@H]2CC[C@H]2[C@](O)(CC(=O)N2CCN4CCOCC4C2)/C=C/C[C@H](C)C1)C[C@@]1(CCCc2cc(Cl)ccc21)CO3` (some centres unmarked) [Example 103] are 0.074 nM and 34.6 nM.
On the same counts, the results for `COc1nn(C)cc1C(=O)N[S@@]1(=O)=NC(=O)c2ccc3c(c2)N(C[C@@H]2CC[C@H]2[C@@](O)(CC(=O)N2CCN(C4COC4)CC2)/C=C/C[C@H](C)C1)C[C@@]1(CCCc2cc(Cl)ccc21)CO3` [Example 104] are 0.034 nM and 54 nM.
Regarding `COc1nn(C)cc1C(=O)N[S@@]1(=O)=NC(=O)c2ccc3c(c2)N(C[C@@H]2CC[C@H]2[C@](O)(CC(=O)N2CCN(C4COC4)CC2)/C=C/C[C@H](C)C1)C[C@@]1(CCCc2cc(Cl)ccc21)CO3` [Example 105], on MCL1/Bim, the IC50 came out at 0.112 nM. Also, the EC50 in the assay with SKBR3 cells (72 hours) came to 163 nM.
`COc1nn(C)cc1C(=O)N[S@@]1(=O)=NC(=O)c2ccc3c(c2)N(C[C@@H]2CC[C@H]2[C@@](O)(CC(=O)N2CC(N4CCOCC4)C2)/C=C/C[C@H](C)C1)C[C@@]1(CCCc2cc(Cl)ccc21)CO3` [Example 106]: at MCL1/Bim, the IC50 worked out at 0.038 nM. The EC50 with SKBR3 cells (72 hours) worked out at 133 nM.
On the same counts, the results for `COc1nn(C)cc1C(=O)N[S@@]1(=O)=NC(=O)c2ccc3c(c2)N(C[C@@H]2CC[C@H]2[C@@](O)(C#CCN(C)C)/C=C/C[C@H](C)C1)C[C@@]1(CCCc2cc(Cl)ccc21)CO3` [Example 108] are 0.048 nM and 6 nM.
For the compound `COc1nn(C)cc1C(=O)N[S@@]1(=O)=NC(=O)c2ccc3c(c2)N(C[C@@H]2CC[C@H]2[C@](O)(C#CCN(C)C)/C=C/C[C@H](C)C1)C[C@@]1(CCCc2cc(Cl)ccc21)CO3` [Example 109], the IC50 on MCL1/Bim was found to be 0.028 nM. Also, in the assay on SKBR3 cells (72 hours), the half-maximal effective concentration (EC50) worked out at 35.3 nM.
On the same counts, the results for `COc1nn(C)cc1C(=O)N[S@@]1(=O)=NC(=O)c2ccc3c(c2)N(C[C@@H]2CC[C@H]2C(O)(C#CCN(C)C)/C=C/C[C@H](C)C1)C[C@@]1(CCCc2cc(Cl)ccc21)CO3` (some centres unmarked) [Example 110] are 0.045 nM and 27.6 nM.
Consider `COc1nn(C)cc1C(=O)N[S@@]1(=O)=NC(=O)c2ccc3c(c2)N(C[C@@H]2CC[C@H]2[C@](CN2CCN4CCOC[C@@H]4C2)(OC)/C=C/C[C@H](C)C1)C[C@@]1(CCCc2cc(Cl)ccc21)CO3` [Example 111], for which the half-maximal inhibitory concentration (IC50) on MCL1/Bim came to 0.211 nM. The half-maximal effective concentration (EC50) in the assay on SKBR3 cells (setting [1]) amounted to 26.3 nM.
For `COc1nn(C)cc1C(=O)N[S@@]1(=O)=NC(=O)c2ccc3c(c2)N(C[C@@H]2CC[C@H]2[C@@](CN2CCN4CCOC[C@@H]4C2)(OC)/C=C/C[C@H](C)C1)C[C@@]1(CCCc2cc(Cl)ccc21)CO3` [Example 112], the IC50 at MCL1/Bim turned out to be 0.086 nM. Besides, the 50% effective concentration (EC50) with SKBR3 cells (setting [1]) turned out to be 10.4 nM.
`COc1nn(C)cc1C(=O)N[S@@]1(=O)=NC(=O)c2ccc3c(c2)N(C[C@@H]2CC[C@H]2[C@@](O)(CCN2CCOCC2)/C=C/C[C@H](C)C1)C[C@@]1(CCCc2cc(Cl)ccc21)CO3` [Example 113]: on MCL1/Bim, the 50% inhibitory concentration (IC50) amounted to 0.132 nM. In addition, the EC50 in the assay on SKBR3 cells (72 hours) is 35.4 nM.

Usually IC50 stands for the point on the concentration scale where inhibition reaches its midpoint. The term EC50 denotes the concentration at which the effect is half-maximal.
